Assay results published in US8791143B2, “Anthranilic diamide derivatives having cyclic side-chains” (priority 2010, dated 2014).
Read-outs that look alike come from different tables or passages of the source.

Experiments:
[1] = log P by HPLC on reversed-phase columns (EEC Directive 79/831 Annex V.A8); type: physicochemical
[2] = system: green peach aphid (Myzus persicae); test: Myzus test (MYZUPE spray treatment); type: in vivo; details: Myzus persicae, 144 h
[3] = system: caterpillars of the armyworm (Spodoptera frugiperda); test: Spodoptera frugiperda test (SPODFR spray treatment); type: in vivo; details: Spodoptera frugiperda, 168 h
Boophilus microplus = Boophilus microplus test (BOOPMI injection); type: in vivo; details: Rhipicephalus microplus, 168 h; 20 μg/animal, injection into the abdomen, after 7 days; read-out: activity in % (no fertile eggs laid)
Method: (§1) Solvent: dimethyl sulphoxide
The active compound solution is injected into the abdomen (Boophilus microplus), and the animals are transferred into dishes and stored in a climate-controlled room.
The activity is assessed by […] of fertile eggs. 100% means that none of the ticks has laid any fertile eggs.

Lucilia cuprina larvae = test: Lucilia cuprina test (LUCICU); type: in vivo; details: 1152 h, read-out: activity (kill in %)
Method: as §1
Vessels containing horse meat treated with the active ingredient preparation of the desired concentration are populated with about 20 Lucilia cuprina larvae.
(§2) After 48 days, the kill in % is determined.

adult Musca domestica = test: Musca domestica test (MUSCDO); type: in vivo; details: 1152 h, read-out: activity (kill in %)
Method: as §1
Vessels containing a sponge treated with the active compound preparation of the desired concentration are populated with adult Musca domestica.
as §2

[4] = system: larvae of the mustard beetle (Phaedon cochleariae); test: Phaedon test (PHAECO spray treatment); details: Phaedon cochleariae, 168 h, read-out: activity in % (beetle larvae killed)
[5] = reversed-phase C18 HPLC column, pH 2.7, HPLC reversed-phase C18, acidic range pH 2.7 (HCOOH), only or first value of the cell, read-out: log P
[6] = application rate 100 g/ha, after 6 days, read-out: activity in % (aphids killed)
[7] = application rate 100 g/ha, after 7 days, read-out: activity in % (caterpillars killed)

| SMILES | chromatographic logP [1, 5] | pest or weed control at 100 g/ha [2, 6] [%] | pest or weed control at 100 g/ha [3, 7] [%] | pest or weed control at 0.02 mg (Boophilus microplus) [%] | pest or weed control at 100 ppm (Lucilia cuprina larvae; 100 ppm, after 48 days) [%] | pest or weed control at 20 ppm (adult Musca domestica; after 48 days) [%] | pest or weed control at 100 g/ha [4] [%] | log P (second value after the slash) ([1]; pH 2.7) | chromatographic logP ([1]; pH 2.7, log P) | pest or weed control at 100 g/ha ([2]; read-out: activity in % (aphids killed)) [%] | pest or weed control at 100 g/ha ([3]; read-out: activity in % (caterpillars killed)) [%] | pest or weed control at 100 ppm (Lucilia cuprina larvae) [%] | pest or weed control at 100 ppm (adult Musca domestica) [%] | inhibition at 100 g/ha ([2]; 100 g/ha, 6 d, comparison with prior art) [%] | inhibition at 100 g/ha ([3]; 100 g/ha, 7 d, comparison with prior art) [%] | pest or weed control at 100 ppm (adult Musca domestica; 100 ppm, after 48 days) [%] | pest or weed control at 500 g/ha ([2]; application rate 500 g/ha, after 6 days, read-out: activity in % (aphids killed)) [%] | pest or weed control at 500 g/ha ([3]; application rate 500 g/ha, after 7 days, read-out: activity in % (caterpillars killed)) [%] | pest or weed control at 500 g/ha [4] [%] |
| --- | --- | --- | --- | --- | --- | --- | --- | --- | --- | --- | --- | --- | --- | --- | --- | --- | --- | --- | --- |
| Cc1cc(C#N)cc(C(=O)NC2COC2)c1NC(=O)c1cc(Cn2nnc(C(F)(F)F)n2)nn1-c1c(F)cccc1F [Example 27] | 2.79 | 80 | 100 | 100 | 100 | 100 | 100 |  |  |  |  |  |  |  |  |  |  |  |  |
| Cc1cc(Cl)cc(C(=O)N[C@@H]2CCOC2=O)c1NC(=O)c1cc(Cn2nnc(C(F)(F)F)n2)nn1-c1ncccc1Cl [Example 42] |  |  |  | 100 |  |  | 100 | 2.53 | 2.84 | 100 | 100 | 100 | 90 |  |  |  |  |  |  |
| Cc1cc(C#N)cc(C(=O)NC2CCS(=O)(=O)C2)c1NC(=O)c1cc(Cn2nnc(C(F)(F)F)n2)nn1-c1ccccc1Cl (stereo not drawn) [Example 36] | 2.82 | 100 | 100 | 100 | 100 |  | 100 |  |  |  |  |  |  | 100 | 100 | 80 |  |  |  |
| Cc1cc(C#N)cc(C(=O)NC2CCN(Cc3ccccc3)C2)c1NC(=O)c1cc(Cn2nnc(C(F)(F)F)n2)nn1-c1ncccc1Cl (stereo not drawn) [Example 30] | 1.9 |  |  | 100 | 100 | 80 |  |  |  |  |  |  |  |  |  |  | 100 | 100 | 100 |
| Cc1cc(C#N)cc(C(=O)NC2(c3cccc(C(F)(F)F)c3)CC2)c1NC(=O)c1cc(Cn2nnc(C(F)(F)F)n2)nn1-c1ncccc1Cl [Example 65] | 3.97 | 90 | 100 | 100 | 100 | 80 | 100 |  |  |  |  |  |  |  |  |  |  |  |  |
| Cc1cc(C#N)cc(C(=O)NC2COC2)c1NC(=O)c1cc(Cn2nnc(C(F)(F)F)n2)nn1-c1ccccc1Cl [Example 26] | 2.85 | 100 | 100 | 100 | 100 |  | 100 |  |  |  |  |  |  |  |  | 80 |  |  |  |
